In brackets after ≈: the same amount, converted by molar mass.
Experiments:
[1] = test system: rat limb bones (PTH-induced bone resorption); experiment: Bone resorption assay (45Ca release from rat limb bones), PTH-induced; type: cell-based, rat (Sprague-Dawley CD); settings: 48 h; for IC50: Rattus norvegicus, read-out: Inhibition of Bone Resorption, PTH-Induced (IC50)
Protocol: (§1) The ability of the compounds of the invention to modify the process of bone resorption is evaluated in the bone resorption assay measuring ^45 Ca release from rat limb bones.
(§2) Limb bone preparation. Timed pregnant Sprague-Dawley CD® rats (Charles River) are administered 100 μCi ^45 CaCl2 (NEN calcium -45 NEZ-013) in 100 μl of 0.9% saline, subcutaneously, on day 18 of gestation. The rats are sacrificed the following day by CO2 asphyxiation. The fetuses are removed and the right forelimbs excised and placed in a Petri dish containing ice cold explant medium consisting of modified BGJb -Fitton Jackson media (custom formulation, Gibco No. 78-0088) adjusted to pH 7.3 to which 10 mM TES is added. The modified BGJb media is obtained without salts, glucose or bicarbonate and is supplemented before use with 0.1 mM MgCl2, 1.25 mM CaCl2, 5.3 mM KCl, 0.7 mM MgSO4, 130 mM NaCl, 1.0 mM NaH2 PO4, 1 g/L glucose, 50 mg/L Na acetate and 100 U/ml penicillin G. The medium is sterilized by passage through a 0.2 μ M filter (Nalge). Under a dissecting microscope, the bones are gently cleaned of adherent tissue and the cartilaginous ends removed. Incubation and drug treatment. The midshafts are placed, individually, on 3×3 mm squares of filter paper (Gelman GN-6 metricel filters; […] pore size) which rest on stainless steel screens in wells of 24-well culture plates containing 0.5 mL of preincubation medium. The preincubation medium is brought to 37° C. prior to transfer of bones. The preincubation medium consists of the modified BGJb medium (with salts and glucose as above), pH 7.3, containing 29 mM NaHCO3. After incubation for 18-24 hours at 37° C. in 5% CO2, the bones are transferred on their screen/filter paper supports to new plates containing, in a total volume of 0.5 mL/well at 37° C., the test compound diluted in preincubation medium supplemented with 15% heat inactivated horse serum (Gibco No. 230-6050), pH 7.3, with a bone resorption stimulating agent (e.g. parathyroid hormone [PTH] or interleukin-1 [IL-1]). For compounds that require nonaqueous solvents, dilutions are made from the appropriate stock solution with medium. In these instances, basal and bone resorption stimulated controls exposed to an equivalent concentration of the vehicle are included. An additional group of bones that have been subjected to boiling for 1 hour (kill control) are used to establish background, non cell mediated, exchange of ^45 Ca. The right ulna and radius from each fetus are used. Both bones are subjected to the same treatment and each treatment group consists of bones from 4 or more fetuses. Treatments are randomly assigned using a preclinical statistics program (PS-ALLOC). After a 48 hour incubation at 37° C. in 5% CO2, the bones are removed from the medium and extracted in 0.5 mL of 0.1N HCl for 1 or more days. Duplicate 150 μL aliquots of the incubation medium and the bone extract are analyzed for ^45 Ca radioactivity in 5 mL of liquid scintillation cocktail.
(§3) The percentage of bone ^45 Ca released into the medium is determined as follows: [formula] Results are normally expressed as the ratio of the percent ^45 Ca release of the experimental group versus the appropriate vehicle control, or as an IC50 value.

[2] = test system: rat limb bones (IL-1 induced bone resorption); experiment: Bone resorption assay (45Ca release from rat limb bones), IL-1 induced; type: cell-based, rat (Sprague-Dawley CD); settings: 48 h; for IC50: Rattus norvegicus, read-out: Inhibition of Bone Resorption, IL-1 Induced (IC50)
Protocol: as §1, §2, §3

[3] = test system: rabbit articular chondrocytes (IL-1-induced neutral protease release); experiment: Inhibition of IL-1-induced release of neutral protease from rabbit articular chondrocytes; type: cell-based, rabbit (Male New Zealand White); settings: Oryctolagus cuniculus, Chondrocyte, human IL-1 stimulated, 24 h
Protocol: The ability of the compounds of the invention to inhibit interleukin 1 is measured by the ability of the test compounds to inhibit the IL-1-induced release of neutral protease from rabbit articular chondrocytes.
Male New Zealand White rabbits are anesthetized with 50 mg/kg of ketamine (i.m.) and killed by an intracardiac injection of 3 mls. of Nembutal. The knee joints of both legs are resected and the articular surfaces are exposed. Cartilage slices are obtained using a scalpel and are placed in a tissue culture dish (100 mm diameter) containing 10 mls of Hank's balanced salt solution (HBSS). The chondrocytes within the cartilage slices are then liberated by a series of enzyme digestions. The slices are incubated for 10 minutes at 37° C. in 0.05% hyaluronidase (Sigma H-3884), rinsed with HBSS and incubated with 0.2% trypsin (Sigma T-2395) for 10 minutes at 37° C. The slices are rinsed again and incubated for 10 minutes at 37° C. with 1.2% collagenase (Sigma C-5138). The slices are then rinsed again with HBSS and resuspended in 10 ml of Ham's F-12 medium containing 10% fetal bovine calf serum (FCS) and 0.2 % collagenase and incubated overnight at 37° C. in a 5% CO2 incubator. The next day, the medium containing the digested cartilage fragments and liberated chondrocytes is transferred to a 15 ml centrifuge tube and the cells are collected by centrifugation and washed twice and resuspended in Ham's F-12 medium. The cells are then plated into 24-well tissue culture plates (2×10^5 cells/well) and incubated at 37° C. until confluent (usually 4-6 days).
The confluent chondrocytes are rinsed twice with serum-free Ham's F-12 medium and 1 ml is added to each well. Fifty μl of purified human IL 1 (100 Units/ml; Genzyme Corporation, Boston, Mass.) is then added to stimulate these cells to secrete neutral protease. To measure drug effects, the cells are treated with test compound 10 minutes prior to addition of IL-1. The standard screening dose is 10 μM. Twenty-four hours after IL-1 stimulation, supernatant fluids are collected and assayed for neutral protease activity.
The neutral protease activity of chondrocyte supernatant fluids is determined by their ability to degrade an insoluble protease substrate, azocoll (Sigma). Supernatants are treated for 10 minutes at room temperature with 350 μM p-aminophenylmurcuric acetate to activate the latent enzyme. Three hundred μl of supernatant is then mixed with 500μl of a 20 mg/ml suspension of azocoll and incubated at 37° C. for 18-24 hours with gentle rocking. The mixtures are centrifuged and the amount of substrate hydrolyzed is determined by measuring the absorbance of the supernatant at 520 nm.
Drug effects are calculated as the % change in enzyme activity (absorbance)by supernatants from drug-treated chondrocytes relative to enzyme activity of supernatants from vehicle-treated chondrocytes as follows: [formula]

O=C(c1ccncc1)N1CCc2[nH]c3c(cnc4cc(Cl)ccc43)c2C1 [Example 8, 3-Chloro-8,9,10,11-tetrahydro-8-(4-pyridinylcarbonyl)-7H-pyrido[3',4':4,5]pyrrolo[3,2-c]quinoline]
Inhibition of Bone Resorption, PTH-Induced (activity in words) [1]: Active at 10 μg/ml
Inhibition of Bone Resorption, IL-1 Induced (activity in words) [2]: Active
IC50 [2]: 1.96 µg/mL (≈ 5.4 µM)
inhibition at 10 µM [3]: 35%

O=C(c1ccco1)N1CCc2[nH]c3c(cnc4cc(Cl)ccc43)c2C1 [Example 9, 3-Chloro-8-(2-furanylcarbonyl)-8,9,10,11-tetrahydro-7H-pyrido[3',4':4,5]pyrrolo[3,2-c]quinoline]
Inhibition of Bone Resorption, PTH-Induced (activity in words) [1]: Active
IC50 [1]: 2.88 µg/mL (≈ 8.19 µM)
Inhibition of Bone Resorption, IL-1 Induced (activity in words) [2]: Active
IC50 [2]: 0.307 µg/mL (≈ 0.873 µM)
inhibition at 10 µM [3]: 36%

O=S(=O)(c1cccs1)N1CCc2[nH]c3c(cnc4cc(Cl)ccc43)c2C1 [Example 11, 3-Chloro-8,9,10,11-tetrahydro-8-(2-thienylsulfonyl)-7H-pyrido [3',4':4,5]pyrrolo[3,2-c]quinoline]
Inhibition of Bone Resorption, PTH-Induced (activity in words) [1]: Active
IC50 [1]: 0.144 µg/mL (≈ 0.357 µM)
Inhibition of Bone Resorption, IL-1 Induced (activity in words) [2]: Active
IC50 [2]: 0.018 µg/mL (≈ 0.0446 µM)
inhibition at 1 µM ([3]; dose 1 μM): < 20%

O=C(Oc1ccccc1)N1CCc2[nH]c3c(cnc4cc(Cl)ccc43)c2C1 [Example 12, 3-Chloro-7,9,10,11-tetrahydro-8H-pyrido[3',4':4,5]pyrrolo-[3,2-c]quinoline-8-carboxylic Acid Phenyl Ester]
Inhibition of Bone Resorption, PTH-Induced (activity in words) [1]: Active
IC50 [1]: 0.274 µg/mL (≈ 0.725 µM)
Inhibition of Bone Resorption, IL-1 Induced (activity in words) [2]: Active
IC50 [2]: 0.76 µg/mL (≈ 2.01 µM)
inhibition at 10 µM [3]: < 20%

— US5281608A, “Substituted tetrahydropyrido[3',4':4,5]-pyrrolo[3,2-c]quinolines” (American Home Products Corporation, priority 1992, dated 1994)
